Reference: patent US11618744B2, “Benzoimidazoles as prolyl hydroxylase inhibitors” (Janssen Pharmaceutica NV, priority 2008, dated 2023)

System: Hep-3B cells
Test: Cellular assay: erythropoietin (EPO) secretion in Hep-3B cells
Format: cell-based, human
Details: 24 h incubation, compound at 100 μM, percentage of EPO secretion of control compound 7-[(4-Chloro-phenyl)-(5-methyl-isoxazol-3-ylamino)-methyl]-quinolin-8-ol

Row | SMILES | Cellular % EPO Stimulation
1 | O=C(O)c1cnn(-c2nc3ccccc3[nH]2)c1 [Example 1, 1-(1H-Benzoimidazol-2-yl)-1H-pyrazole-4-carboxylic acid] | 7.1%
2 | Cc1cc2nc(-n3cc(C(=O)O)cn3)[nH]c2cc1C [Example 5, 1-(5,6-Dimethyl-1H-benzoimidazol-2-yl)-1H-pyrazole-4-carboxylic acid] | 2.1%
3 | O=C(O)c1cnn(-c2nc3cc(-c4cccc(OCc5ccccc5Cl)c4)ccc3[nH]2)c1 [Example 13, 1-{5-[3-(2-Chloro-benzyloxy)-phenyl]-1H-benzoimidazol-2-yl}-1H-pyrazole-4-carboxylic acid] | 18%
4 | O=C(O)c1cnn(-c2nc3cc(-c4cccc(C(F)(F)F)c4)ccc3[nH]2)c1 [Example 17, 1-[5-(3-Trifluoromethyl-phenyl)-1H-benzoimidazol-2-yl]-1H-pyrazole-4-carboxylic acid] | 5.8%
5 | Cc1nn(-c2nc3cc(Cl)c(Cl)cc3[nH]2)c(C)c1C(=O)O [Example 22, 1-(5,6-Dichloro-1H-benzoimidazol-2-yl)-3,5-dimethyl-1H-pyrazole-4-carboxylic acid] | 0.47%
